Laboratory results published in patent US7101872B2, “Farnesyl dibenzodiazepinone, and processes for its production” (Ecopia BioSciences, Inc., priority 2003, dated 2006).

Assays:
GL26 = assay: Antiproliferative study, glioma cell lines (MTT); format: cell-based, Human; details: Mus musculus, GL26, Glioblastoma, 96 hrs
Procedure: Cells were passaged once a week. Prior to use the cells were detached from the culture flask by treating with trypsin for five to ten minutes. The cells were counted with a Neubauer glass slide and viability assessed by 0.25% trypan blue exclusion. Only flasks with >95% cell viability, were used in the study. Cell lines amplification and plating: Cells, 5×10^3 cells per well in 100 μL drug-free medium supplemented with 10% serum, were plated in 96-well flat bottom microtiter plates and incubated at 37° C. for 48 hrs before treatment. Evaluation of inhibitory activity on cell proliferation: Cells (in triplicate wells) were incubated 96 hrs with medium containing different concentrations of ECO-04601, starting at 5.0 μg/ml (10 μM). The compound was used in a solution of 1% DMSO in D-MEM or RPMI media (or other equivalent media). […] The optical density was measured before incubation (time 0) and following 96 hrs of incubation with test compound in order to measure the growth rate of each cell line.
At the end of the cell treatment, cell culture media was replaced with 150 μl of fresh medium containing 10 mM of 4-(2-hydroxyethyl)-1-piperazineethanesulfonic acid buffer, pH 7.4. […] The optical density was read in each well using a single wavelength spectrophotometer plate reader at 570 nm. […]

P388 = assay: MTT cell proliferation, tumor cell lines; format: cell-based; details: Mus musculus, P388, Leukemia, 96 hrs
Procedure: (§1) Culture conditions: The cell lines listed in Table 4 were used to characterize the cytotoxicity of ECO-04601 against human and animal tumor cell lines. […] Cells were passaged twice to three times per week. Viability was examined by staining with 0.25% trypan blue and only flasks where cell viability was >95% were used for this study. Cell lines amplification and plating: Tumor cells were seeded (1–3×10^3 cells per 100 μL) in 96-wells flat bottom microtiter plates and incubated at 37° C. and 5% CO2 for 16 hrs before treatment in drug-free medium supplemented with 10% serum. Evaluation of inhibitory activity on cell proliferation: Cells were incubated for 96 hrs with 6 log10-fold concentrations of the test substance starting at 10 μg/ml (20 μM). The test substance stock solution (5 mg/mL) was initially diluted at […] in medium supplemented with serum. Other concentrations were then obtained from 1/10 fold successive dilutions in the same supplemented medium. Cell survival was evaluated 96 h later by replacing the culture media with 150 μL fresh medium containing 10 mM 4-(2-hydroxyethyl)-1-piperazineethanesulfonic acid buffer, pH 7.4. Next, 50 μL of 2.5 mg/mL of 3-(4,5-dimethylthiazo-2-yl)-2,5-diphenyltetrazolium bromide (MTT) in phosphate buffer solution, pH 7.4, was added. After 3–4 h of incubation at 37° C., the medium and soluble MTT was removed, and 200 μL of dimethylsulfoxide was added to dissolve the precipitate of reduced MTT followed by addition of 25 μL glycine buffer (0.1 M glycine plus 0.1 M NaCl, pH 10.5). The absorbance was determined at 570 nm with a microplate reader.

B16 (F10) = assay: MTT cell proliferation, tumor cell lines; format: cell-based; details: Mus musculus, Melanoma, 96 hrs
Procedure: as §1

Panc 10.05 = assay: MTT cell proliferation, tumor cell lines; format: cell-based; details: Homo sapiens, Panc1005, Panc 10.05, Pancreatic carcinoma, 96 hrs
Procedure: as §1

Panc 96 = assay: MTT cell proliferation, tumor cell lines; format: cell-based; details: Homo sapiens, Panc 96, Pancreatic carcinoma, 96 hrs
Procedure: as §1

SK-MEL-1 = assay: MTT cell proliferation, tumor cell lines; format: cell-based; details: Homo sapiens, SK-MEL-1, Melanoma, 96 hrs
Procedure: as §1

MCF-7 = assay: MTT cell proliferation, tumor cell lines; format: cell-based; details: Homo sapiens, MCF7, MCF-7, Breast adenocarcinoma, 96 hrs
Procedure: as §1

SK-MEL 28^VEGF = assay: MTT cell proliferation, tumor cell lines; format: cell-based; details: Homo sapiens, Melanoma (expressing VEGF), 96 hrs
Procedure: as §1

K562 = assay: MTT cell proliferation, tumor cell lines; format: cell-based; details: Homo sapiens, K562, Leukemia myelogeneous, 96 hrs
Procedure: as §1

SK-MEL 28 = assay: MTT cell proliferation, tumor cell lines; format: cell-based; details: Homo sapiens, SK-MEL 28, Melanoma, 96 hrs
Procedure: as §1

I83 = assay: MTT cell proliferation, tumor cell lines; format: cell-based; details: Homo sapiens, I83, Leukemia, 96 hrs
Procedure: as §1

IC50 (GL26): 8.93 ± 1.1 µM | IC50 (P388): 10.9 µM | IC50 (B16 (F10)): 11.4 µM | IC50 (Panc 10.05): 14.2 µM | IC50 (Panc 96): 12.5 µM | IC50 (SK-MEL-1): 14.1 µM | IC50 (MCF-7): 9.7 µM | IC50 (SK-MEL 28^VEGF): 14.3 µM | IC50 (K562): 8.6 µM | IC50 (SK-MEL 28): 14 µM | IC50 (I83): 2.7 µM
Compound: CC(C)=CCC/C(C)=C/CC/C(C)=C/CN1C(=O)c2cccc(O)c2Nc2c(O)cc(O)cc21 [ECO-04601, 10-farnesyl-4,6,8-trihydroxy-dibenzodiazepin-11-one]
